Assay results: article PMC7582727, “Functional Impact of BeKm-1, a High-Affinity hERG Blocker, on Cardiomyocytes Derived from Human-Induced Pluripotent Stem Cells” (International Journal of Molecular Sciences, 2020)
Entries after “also recorded” stand apart in the source; their conditions may differ. Positions of bridges follow the written chain, without caps; N, C: chain ends. Residues, ends and D or L forms follow the SMILES beside them.

What was measured:
[1] = target: human hERG channel (Kv11.1) (Homo sapiens, UniProt Q12809); experiment: in vitro
Sequence of human hERG channel (Kv11.1) (Q12809 whole entry): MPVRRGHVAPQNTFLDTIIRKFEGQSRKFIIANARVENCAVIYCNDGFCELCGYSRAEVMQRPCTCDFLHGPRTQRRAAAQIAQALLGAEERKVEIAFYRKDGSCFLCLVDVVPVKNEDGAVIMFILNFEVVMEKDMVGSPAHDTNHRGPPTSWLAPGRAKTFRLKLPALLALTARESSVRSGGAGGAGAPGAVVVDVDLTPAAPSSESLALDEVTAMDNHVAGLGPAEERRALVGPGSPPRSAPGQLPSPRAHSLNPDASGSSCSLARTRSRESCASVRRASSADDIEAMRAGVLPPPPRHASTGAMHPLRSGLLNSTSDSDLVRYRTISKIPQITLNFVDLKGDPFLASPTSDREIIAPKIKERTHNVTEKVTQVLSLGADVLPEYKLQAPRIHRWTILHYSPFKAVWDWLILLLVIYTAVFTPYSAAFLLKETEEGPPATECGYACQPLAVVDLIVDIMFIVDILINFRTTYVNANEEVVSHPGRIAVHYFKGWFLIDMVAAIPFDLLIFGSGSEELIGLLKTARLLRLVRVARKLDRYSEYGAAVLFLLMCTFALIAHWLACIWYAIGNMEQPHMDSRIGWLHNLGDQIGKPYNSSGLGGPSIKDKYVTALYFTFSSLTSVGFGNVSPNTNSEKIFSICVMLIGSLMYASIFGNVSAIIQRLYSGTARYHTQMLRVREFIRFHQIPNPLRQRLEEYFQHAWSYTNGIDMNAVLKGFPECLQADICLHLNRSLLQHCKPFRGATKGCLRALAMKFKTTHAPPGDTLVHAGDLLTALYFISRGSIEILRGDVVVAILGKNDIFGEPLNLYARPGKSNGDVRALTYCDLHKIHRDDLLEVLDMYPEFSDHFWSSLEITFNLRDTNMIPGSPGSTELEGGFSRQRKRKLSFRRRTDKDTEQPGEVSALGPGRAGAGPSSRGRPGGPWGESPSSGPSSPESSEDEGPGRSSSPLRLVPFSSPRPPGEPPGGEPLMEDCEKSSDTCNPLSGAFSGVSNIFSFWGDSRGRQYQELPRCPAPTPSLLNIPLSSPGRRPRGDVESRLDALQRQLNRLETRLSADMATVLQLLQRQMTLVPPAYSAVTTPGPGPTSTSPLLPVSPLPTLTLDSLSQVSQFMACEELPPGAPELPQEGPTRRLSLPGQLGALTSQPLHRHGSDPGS
Experimental: (§1) Voltage pulses and whole-cell recordings were achieved using the PatchControl384 v1.5.3 software (Nanion Technologies, Munich, Germany) and the Biomek v1.0 interface (Beckman Coulter, Villepinte, France). […] After cell catching, sealing, whole-cell formation, liquid application, recording, and data acquisition were all performed sequentially and automatically. […] A single concentration of peptide was tested on each cell for building the full-inhibition curves.

human hERG channel = human hERG channel (Homo sapiens, UniProt Q12809); experiment: in vitro; conditions: human
Sequence of human hERG channel (Q12809 whole entry): as above
Experimental: as §1

hiPS-CMs monolayer = experiment: Electric field potential of hiPS-CM monolayers (CardioExcyte96); format: cell-based, human
Excerpt: The excitability abnormalities recorded on single hiPS-CM APs should translate into larger abnormalities when these cells are interacting with each other in monolayers. To assess this issue, we investigated the electrical excitability of hiPS-CM monolayers using the CardioExcyte96 system (Nanion). This system monitors both the electric field potential (EFP), which reflects the concerted electrical activity of the cell monolayer, and the impedance changes due to cell contractions, which will be described below. […] As saturating concentrations of BeKm-1 (100 nM) induced the arrest of spontaneous APs in individual cells, we were interested to see what may happen on a monolayer of hiPS-CMs.
hiPS-CMs: All experiments were performed on the human-induced pluripotent stem cell (hiPSC) clone C2a that has been previously characterized, including cardiac differentiation and electrophysiology data. Cells were expanded on stem cell-qualified matrigel-coated plates (0.05 mg/mL; BD Bioscience, Le Pont de Claix, France) and cultured in StemMACS iPS-BREW XF medium (Miltenyi Biotec, Paris, France). Cells were passaged every […] using Gentle Cell Dissociation Buffer (StemCell Technologies, Grenoble, France). Prior to differentiation, cells were cultured as a monolayer in StemMACS iPS-brew supplemented with 1 × Y-27632 Rho-associated, coiled-coil containing protein kinase (ROCK) inhibitor (StemCell Technologies, Grenoble, France). When hiPSCs reached proper confluence, they were differentiated into cardiomyocytes using previously described « Matrix sandwich » protocol. At day 20 ± 1 of differentiation, beating cardiomyocytes were manually dissected and isolated from non-beating cells. Briefly, cardiomyocytes were washed with phosphate-buffered saline (PBS) and treated with TrypLE Express (10x) (Thermo Fisher Scientific, Illkirch-Graffenstaden, France) for 5 min at 37 °C. The enzyme was inactivated by adding RPMI1640 medium containing 20% (vol/vol) KnockOut Serum Replacement (KSR) (Thermo Fisher Scientific, Illkirch-Graffenstaden, France). […]
The beating properties and the electrical field potentials of hiPS-CMs were evaluated with a CardioExcyte96 system. […] Meanwhile, cells were monitored to ensure the full stabilization of beating parameters until BeKm-1 was tested at various concentrations ([…]). Tfall and Trise were determined as the time between 10% and 90% of contraction or relaxation, respectively. Pulse width (PWx) was determined as the time corresponding to the width of the signal at 90% of relaxation. Electric field potentials (EFPs) were recorded using CardioExcyte96 system. For both contraction and EFPs, 10 sequences of 30 s of acquisition were analyzed before and after BeKm-1 addition. […]

[2] = system: hiPS-CMs (clone C2a, ventricular-like); format: cell-based, human
Experimental: Although the effect of BeKm-1 on APD90 was expected from a block of hERG channels, the other effects (i.e., membrane depolarization, reduction in AP frequency, and decrease of maximal upstroke velocity) are most likely a secondary consequence of the absence of IK1 in hiPS-CMs due to incomplete maturation level of these cells during the differentiation process (a recurrent problem in differentiating hiPS into cardiomyocytes). The 5 nM concentration of BeKm-1 was chosen to spare a fraction of the hERG channels in these cells. Therefore, we also tested a higher concentration (100 nM) in order to affect all hERG channels. […] This observation is coherent with the fact that a stronger IK1 current would be needed in hiPS-CMs to maintain a more negative membrane potential typical for CMs. […] In this technique, a current density of 2.8 pA/pF is injected in order to successfully reach an RMP value of −80 mV. […] Representative APs, paced at a constant cycling length of 700 ms with IK1, are shown before and after the application of 5 nM BeKm-1 (Figure 3A,B). […] Logically, these APs were excluded from further analysis of AP parameters. IK1 in silico injection efficiently allowed for setting a real resting membrane potential (RMP) at −80 mV in these hiPS-CMs, causing the cessation of spontaneous APs (not shown). As a result of IK1 taking the relay over IKr, there was no effect of 5 nM BeKm-1 on RMP (Figure 3C). […] The average prolongation of APD90 and variability is also detailed cell by cell (Figure S3).
hiPS-CMs: All experiments were performed on the human-induced pluripotent stem cell (hiPSC) clone C2a that has been previously characterized, including cardiac differentiation and electrophysiology data. Cells were expanded on stem cell-qualified matrigel-coated plates (0.05 mg/mL; BD Bioscience, Le Pont de Claix, France) and cultured in StemMACS iPS-BREW XF medium (Miltenyi Biotec, Paris, France). Cells were passaged every […] using Gentle Cell Dissociation Buffer (StemCell Technologies, Grenoble, France). Prior to differentiation, cells were cultured as a monolayer in StemMACS iPS-brew supplemented with 1 × Y-27632 Rho-associated, coiled-coil containing protein kinase (ROCK) inhibitor (StemCell Technologies, Grenoble, France). When hiPSCs reached proper confluence, they were differentiated into cardiomyocytes using previously described « Matrix sandwich » protocol. At day 20 ± 1 of differentiation, beating cardiomyocytes were manually dissected and isolated from non-beating cells. Briefly, cardiomyocytes were washed with phosphate-buffered saline (PBS) and treated with TrypLE Express (10x) (Thermo Fisher Scientific, Illkirch-Graffenstaden, France) for 5 min at 37 °C. The enzyme was inactivated by adding RPMI1640 medium containing 20% (vol/vol) KnockOut Serum Replacement (KSR) (Thermo Fisher Scientific, Illkirch-Graffenstaden, France). The supernatant was removed, and cells were suspended in RPMI1640 medium containing 20% (vol/vol) KSR and ROCK inhibitor. Then, the cells were plated on specific supports suitable for functional assessments.
Manual patch clamp: Single-cell dissociated hiPS-CMs were plated at low density on matrigel-coated 35 mm Petri dishes (Nunc from Thermo Fisher Scientific, Illkirch-Graffenstaden, France). Electrophysiological experiments were performed 12 to 14 days after dissociation. APs were recorded in the current-clamp mode, using the amphotericin-B-perforated patch-clamp technique. All experiments were conducted at 37 °C. APs were recorded either at basal state (spontaneous APs) or using the dynamic patch-clamp method to electronically mimic the expression of the inward rectifier potassium current, IK1 [23, 24]. The resting membrane potential (RMP) was set to −80 ± 5 mV by injecting 2 to 2.8 pA/pF in silico IK1 density. This level of current was set so that about 80% of the ventricular-like hiPS-CMs could reach these physiological RMP values. […]

[3] = 5 nM, dynamic clamp, paced every 700 ms

## CC[C@H](C)[C@H](NC(=O)[C@H](CC(=O)O)NC(=O)[C@@H](NC(=O)[C@@H]1CCCN1C(=O)[C@@H](N)CCCNC(=N)N)[C@@H](C)O)C(=O)N[C@@H](CCCCN)C(=O)N[C@H]1CSSC[C@@H]2NC(=O)[C@H](CCCNC(=N)N)NC(=O)CNC(=O)[C@H](CC(N)=O)NC(=O)[C@H]([C@@H](C)O)NC(=O)[C@H](CCCCN)NC(=O)CNC(=O)[C@H](Cc3ccccc3)NC(=O)[C@H](CCCNC(=N)N)NC(=O)[C@H](CO)NC(=O)[C@H](CCCCN)NC(=O)[C@@H]3CSSC[C@@H](C(=O)N[C@@H](Cc4ccccc4)C(=O)O)NC(=O)[C@H](CC(=O)O)NC(=O)[C@H](CSSC[C@H](NC(=O)[C@H](CCC(N)=O)NC(=O)[C@H](Cc4ccc(O)cc4)NC(=O)[C@H](CO)NC(=O)[C@H](CCC(=O)O)NC(=O)[C@H](CO)NC1=O)C(=O)N[C@@H](Cc1ccccc1)C(=O)N1CCC[C@H]1C(=O)N[C@@H](C(C)C)C(=O)N3)NC(=O)[C@H](Cc1ccccc1)NC(=O)CNC(=O)[C@H](CC(N)=O)NC(=O)[C@H](C(C)C)NC2=O [BeKm-1] (H-RPTDIKCSESYQCFPVCKSRFGKTNGRCVNGFCDCF-OH; disulfide 7-28, 13-33, 17-35 (inferred); N-terminus and C-terminus assumed)
[1]; HEK293-hERG, Hill equation fit of dose-response curve
  Hill number, hERG current inhibition: 1.9
[1]; at maximally effective doses of the peptide (100 nM)
  maximal block of hERG currents (plateau): 90%
Human hERG channel
  IC50 at 13 min: 1.9 ± 0.3 nM
hiPS-CMs monolayer; 2 nM, 37 °C, vehicle 2.8 ± 0.1 s, n = 5, mean ± SEM
  EFP duration: 3.4 ± 0.2 s
hiPS-CMs monolayer; 2 nM, Figure 4A
  spontaneous depolarization in EFP: presence of spontaneous depolarization
hiPS-CMs monolayer; 100 nM
  EFP arrhythmic waveforms: sustained waveforms of tachyarrhythmia, and TdP-like polymorphic waveforms; also recorded: increase in beats frequency and fibrillation-like pattern
hiPS-CMs monolayer; 100 nM, 37 °C, vehicle 0.2 ± 0.1 Hz, n = 5, mean ± SEM, significant
  EFP frequency: 0.7 ± 0.1 Hz
[2]; 5 nM vs vehicle, average, dynamic clamp
  APD90 prolongation: 29%
[2]; 5 nM, RMP set to −80 mV by IK1 injection, paced every 700 ms
  resting membrane potential (RMP): no effect
[2]; 5 nM, dynamic clamp, cycle length 700 ms, 37 °C, vehicle 121.9 ± 11.0 ms, n = 10, mean ± SEM
  APD90: 156.7 ± 16.9 ms
[2]; [3]
  AP overshoot: no significant effect
  APD30 and APD50: did not alter
  maximal upstroke velocity: no significant effect
[2]; 5 nM, dynamic clamp, Poincaré plot
  APD90 variability: greater APD90 variability
